Active and inactive are the calls of the source. The rule behind the calls is not given here.
How the values were obtained:
[1] = biological target: T1, C-X-C chemokine receptor type 2 (Homo sapiens, UniProt P25025); assay: Antagonist activity at human CXCR2 expressed in HEK293 cells assessed as inhibition of CXCL8-induced beta-arrestin recruitment preincubated for 30 mins followed by addition of agonist incubated for 90 mins by beta arrestin assay; assay type: functional, cell-based
T1 sequence (P25025 whole entry): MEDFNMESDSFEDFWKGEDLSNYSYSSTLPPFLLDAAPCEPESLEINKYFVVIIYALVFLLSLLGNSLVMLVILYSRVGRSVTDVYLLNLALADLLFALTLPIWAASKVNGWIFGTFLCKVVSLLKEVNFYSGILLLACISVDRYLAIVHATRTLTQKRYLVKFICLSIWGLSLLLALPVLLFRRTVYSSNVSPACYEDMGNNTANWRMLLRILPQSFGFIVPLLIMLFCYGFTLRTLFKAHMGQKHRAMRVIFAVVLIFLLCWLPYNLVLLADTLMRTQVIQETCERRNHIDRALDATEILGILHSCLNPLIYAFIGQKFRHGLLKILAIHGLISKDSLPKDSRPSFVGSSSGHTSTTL

[2] = biological target: C-C chemokine receptor type 8 (Homo sapiens) (UniProt P51685); assay: Antagonist activity against CCR8 (unknown origin) assessed as inhibition of beta-arrestin 2 recruitment at 10 microM by beta arrestin assay relative to control; assay type: functional; design: scale not given: the % may be the effect or the level left
[3] = Apparent volume of distribution in ICR mouse at 30 mg/kg, po measured upto 48 hrs; assay type: ADME, organism-based; conditions: in vivo
[4] = system: Panc02; assay: Antitumour activity against mouse Panc02 cells xenografted in mouse assessed as change in CD11b expressing immune cells infiltration into tumor tissue using LY6C antibody at 10 mg/kg, po bid measured after 15 days by flow cytometry analysis (reference value: 20.5%); assay type: functional; conditions: time 15 day
[5] = biological target: C-C chemokine receptor type 7 (Homo sapiens) (UniProt P32248); assay: Antagonist activity against CCR7 (unknown origin) assessed as inhibition of beta-arrestin 2 recruitment at 10 microM by beta arrestin assay relative to control; assay type: functional; design: scale not given: the % may be the effect or the level left
[6] = system: Panc02; assay: Antitumour activity against mouse Panc02 cells xenografted in mouse assessed as reduction in infiltration of granulocytic MDSCs into tumor tissue at 3 mg/kg, po bid measured after 15 days by flow cytometry analysis; assay type: functional, organism-based; conditions: time 15.0 day
[7] = Clearance in ICR mouse at 3 mg/kg, iv measured upto 48 hrs; assay type: ADME, organism-based; conditions: in vivo
[8] = Half life in ICR mouse at 30 mg/kg, po measured upto 48 hrs; assay type: ADME, organism-based; conditions: ICR, in vivo
[9] = Tmax in ICR mouse at 3 mg/kg, iv measured upto 48 hrs; assay type: ADME, organism-based; conditions: in vivo
[10] = biological target: T1, C-X-C chemokine receptor type 2; assay: Displacement of [I-125]-interleukin-8 against human recombinant CXCR2 expressed in CHO-K1 cells incubated for 60 mins by radio ligand binding assay; assay type: cell-based
[11] = system: Panc02; assay: Antitumour activity against mouse Panc02 cells xenografted in mouse assessed as tumour growth inhibition at 30 mg/kg, po bid […]; assay type: functional; conditions: read-out: TGI
[12] = system: MIA PaCa-2; assay: Cytotoxicity against human MIA PaCa-2 cells assessed as reduction in cell viability measured after 72 hrs by CCK8 assay; assay type: cell-based; conditions: MIA PaCa-2, 72 h
[13] = system: Panc02; assay: Antitumour activity against mouse Panc02 cells xenografted in mouse assessed as reduction in infiltration of neutrophils into tumor tissue at 30 mg/kg, po bid measured after 15 days by immunohistochemical analysis; assay type: functional, organism-based; conditions: time 15.0 day

Sequence of C-C chemokine receptor type 8 (Homo sapiens) (P51685 whole entry): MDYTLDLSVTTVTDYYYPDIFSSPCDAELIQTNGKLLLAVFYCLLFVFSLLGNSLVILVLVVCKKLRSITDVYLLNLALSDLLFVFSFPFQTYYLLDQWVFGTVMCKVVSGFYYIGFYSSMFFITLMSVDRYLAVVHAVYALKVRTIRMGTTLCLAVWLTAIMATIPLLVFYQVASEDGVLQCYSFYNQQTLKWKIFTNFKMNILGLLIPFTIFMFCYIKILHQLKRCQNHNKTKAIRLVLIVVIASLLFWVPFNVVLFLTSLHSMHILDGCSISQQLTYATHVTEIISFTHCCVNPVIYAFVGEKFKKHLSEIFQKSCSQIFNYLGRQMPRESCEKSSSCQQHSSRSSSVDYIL
Sequence of C-C chemokine receptor type 7 (Homo sapiens) (P32248 whole entry): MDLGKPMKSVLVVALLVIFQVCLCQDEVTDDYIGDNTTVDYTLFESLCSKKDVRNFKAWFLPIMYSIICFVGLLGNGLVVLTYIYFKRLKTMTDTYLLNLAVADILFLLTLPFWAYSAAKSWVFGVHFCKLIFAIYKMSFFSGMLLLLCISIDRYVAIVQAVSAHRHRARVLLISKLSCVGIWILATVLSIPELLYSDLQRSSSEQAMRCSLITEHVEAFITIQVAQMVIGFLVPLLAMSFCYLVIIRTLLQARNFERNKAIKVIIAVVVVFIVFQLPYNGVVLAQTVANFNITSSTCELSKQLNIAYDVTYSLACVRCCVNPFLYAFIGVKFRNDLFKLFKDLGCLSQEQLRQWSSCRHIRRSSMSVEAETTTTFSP

IC50 [1]: 95 nM
Activity [2]: < 10%
Vz [3]: 939.87 L/kg
Activity [5]: 20%
clearance [7]: 137 mL/min/kg
half-life [8]: 4.94 h
Tmax [9]: 1.8 min
Ki [10]: 1240 nM
Compound: Cc1c(F)cccc1NC(=O)Nc1ccc2c(c1O)S(=O)(=O)CCC2
Activity [4]: 15.6%
Activity [6]: Active
inhibition in vivo at 30 mg/kg [11]: 61.4%
IC50 [12]: > 10000 nM
Activity [13]: Active

From ChEMBL document CHEMBL5032530, “Discovery of Benzocyclic Sulfone Derivatives as Potent CXCR2 Antagonists for Cancer Immunotherapy” (J Med Chem, 2021)
